Data from article PMC4805166, “Synthetic Cyclolipopeptides Selective against Microbial, Plant and Animal Cell Targets by Incorporation of D-Amino Acids or Histidine” (PLoS ONE, 2016).
Where a SMILES comes first, the peptide text is derived from it. [ ]: non-standard residue; d: D form. The star is where a group is joined. Pentanoyl(4-Me) = CC(C)CCC(=O)*; Octanoyl = CCCCCCCC(=O)*; Hexanoyl = CCCCCC(=O)*

Legend:
[1] = test system: Pseudomonas syringae pv. syringae EPS94; format: cell-based; settings: 48 h
Experimental: (§1) The following plant pathogenic bacterial strains were used: Erwinia amylovora PMV6076 (Institut National de la Recherche Agronomique, Angers, France), Pseudomonas syringae pv. syringae EPS94 (Institut de Tecnologia Agroalimentària, Universitat de Girona, Spain) and Xanthomonas axonopodis pv. vesicatoria 2133–2 (Instituto Valenciano de Investigaciones Agrarias, Valencia, Spain). All bacteria were stored in Luria Bertani (LB) broth supplemented with glycerol (20%) and maintained at -80°C. Bacteria were scrapped from LB agar after growing for 24–48 h at 25°C. The cell material was suspended in sterile water to obtain a suspension of 10^8 CFU mL^-1.
(§2) Lyophilized peptides were solubilized in sterile Milli-Q water to a final concentration of 1 mM and filter sterilized through a 0.22-μm pore filter. For minimum inhibitory concentration (MIC) assessment, dilutions of the compounds were made to obtain a stock concentration of […]. For antibacterial activity twenty microlitres of each dilution were mixed in a microtiter plate well with 20 μL of the corresponding suspension of the bacterial indicator, 160 μL of Trypticase Soy Broth (TSB) (BioMèrieux, France) to a total volume of 200 μL. For antifungal activity 20 μL of each stock solution were mixed in a microtiter plate well with 80 μL of the corresponding suspension of the fungal pathogen and 100 μL of double concentrated PDB to a total volume of 200 μL containing 0.003% w/v of choramphenicol.
(§3) Three replicates for each strain, compound and concentration were used. Microbial growth was determined by optical density measurement at 600 nm (Bioscreen C, Labsystem, Helsinki, Finland). For antibacterial activity microplates were incubated at 25°C with 20 sec shaking before hourly absorbance measurement for 48 h. For antifungal activity microplates were incubated at 20°C with 1 min shaking before absorbance measurement that were done every two hours during seven days. The experiment was repeated twice. The MIC was taken as the lowest compound concentration with no growth at the end of the experiment.

[2] = test system: Xanthomonas axonopodis pv. vesicatoria 2133–2; format: cell-based; settings: TSB, 25°C, 48 h, OD 600 nm; tested at 3.1, 6.2, 12.5, 25, 50 μM; three replicates, experiment repeated twice; MIC = lowest concentration with no growth
Experimental: as §1, §2, §3

[3] = test system: Erwinia amylovora PMV6076; experiment: MIC, in vitro growth inhibition; format: cell-based; settings: TSB, 25°C, 48 h, OD 600 nm; tested at 3.1, 6.2, 12.5, 25, 50 μM; three replicates, experiment repeated twice; MIC = lowest concentration with no growth
Experimental: as §1, §2, §3

[4] = test system: Fusarium oxysporum f. sp. lycopersici FOL 3 race 2; experiment: MIC, antifungal growth inhibition; format: cell-based; settings: PDB with 0.003% chloramphenicol, 20°C, seven days, OD 600 nm; tested at 3.1, 6.2, 12.5, 25, 50 μM; three replicates, repeated twice
Experimental: Fusarium oxysporum f. sp. lycopersici FOL 3 race 2 (ATCC 201829, American Type Culture Collection) was used as fungal pathogen. The strain was cultured on potato dextrose agar (PDA) plates (Difco) and microconidia were obtained after growth at 25°C. The concentration of conidia was determined using a hemacytometer and adjusted to 10^4 conidia mL^-1.
as §2, §3

[5] = test system: erythrocyte suspensions of horse blood; settings: horse erythrocytes 5% vol/vol, TRIS buffer pH 7.2, 1 h at 37°C, absorbance 540 nm, relative to melittin 100 μM, ± confidence interval (α = 0.05); for Hemolysis (%) 150 µM: 150 µM peptide; for Hemolysis (%) 250 µM: 250 µM peptide;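 for all read-outs here: Read-out is hemoglobin release into the supernatant, with a buffer-only blank subtracted as the 0% baseline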
Experimental: Blood was centrifuged at 6000g for 5 min, washed three times with TRIS buffer (10 mM TRIS, 150 mM NaCl, pH 7.2) and diluted.
Compounds were solubilized in TRIS buffer and mixed with horse erythrocytes and the final concentrations tested were 250 and 150 μM. The mixture was incubated under continuous shaking for 1 h at 37°C. Then, the tubes were centrifuged at 3500g for 10 min, 80 μL aliquots of the supernatant transferred to 100-well microplates (Bioscreen), diluted with 80 μL water, and the absorbance measured at 540 nm (Bioscreen). Complete hemolysis was obtained by the addition of melittin at 100 μM (Sigma-Aldrich Corporation, Madrid, Spain). The percentage of hemolysis (H) was calculated using the equation: H = 100×[(Op−Ob)/(Om−Ob)], where Op was the density for a given compound concentration, Ob for the buffer, and Om for the melittin positive control.

SMILES | MIC Pss [1] [µM] | MIC Xav [2] [µM] | MIC Ea [3] [µM] | MIC Fo [4] [µM] | Hemolysis (%) 150 µM [5] [%] | Hemolysis (%) 250 µM [5] [%]
CCCCCC(=O)NCCCC[C@H]1NC(=O)[C@H](CCCCN)NC(=O)[C@H](CC(C)C)NC(=O)[C@H](CCCCN)NC(=O)[C@H](CCCCN)NC(=O)[C@H](CCC(N)=O)NC(=O)[C@H](CC(C)C)NC(=O)[C@H](CCCCN)NC(=O)[C@H](CCCCN)NC(=O)[C@H](Cc2ccccc2)NC1=O [BPC628, c(KKLKk(CO-nC5H11)FKKLQ)] (cyclo(FKKLQKKLK[dK](Hexanoyl))) | 12.5 to 25 | 6.2 to 12.5 | 25 to 50 | 6.2 to 12.5 | 19 ± 2 | 34 ± 3
CC(C)CCC(=O)NCCCC[C@H]1NC(=O)[C@H](CCCCN)NC(=O)[C@H](CC(C)C)NC(=O)[C@H](CCCCN)NC(=O)[C@H](CCCCN)NC(=O)[C@H](CCC(N)=O)NC(=O)[C@H](CC(C)C)NC(=O)[C@H](CCCCN)NC(=O)[C@H](CCCCN)NC(=O)[C@H](Cc2ccccc2)NC1=O [BPC630, c(KKLKk(CO-isoC5H11)FKKLQ)] (cyclo(FKKLQKKLK[dK](Pentanoyl(4-Me)))) | 6.2 to 12.5 | 6.2 to 12.5 | 25 to 50 | 6.2 to 12.5 | 22 ± 2 | 28 ± 3
CCCCCC(=O)NCCCC[C@@H]1NC(=O)[C@H](CCCCN)NC(=O)[C@H](CC(C)C)NC(=O)[C@H](CCCCN)NC(=O)[C@H](CCCCN)NC(=O)[C@H](CCC(N)=O)NC(=O)[C@H](CC(C)C)NC(=O)[C@H](CCCCN)NC(=O)[C@H](CCCCN)NC(=O)[C@H](Cc2c[nH]cn2)NC1=O [BPC636, c(KKLKK(CO-nC5H11)HKKLQ)] (cyclo(HKKLQKKLKK(Hexanoyl))) | 6.2 to 12.5 | 12.5 to 25 | 25 to 50 | 6.2 to 12.5 | 5 ± 2 | 16 ± 5
CC(C)CCC(=O)NCCCC[C@@H]1NC(=O)[C@H](CCCCN)NC(=O)[C@H](CC(C)C)NC(=O)[C@H](CCCCN)NC(=O)[C@H](CCCCN)NC(=O)[C@H](CCC(N)=O)NC(=O)[C@H](CC(C)C)NC(=O)[C@H](CCCCN)NC(=O)[C@H](CCCCN)NC(=O)[C@H](Cc2c[nH]cn2)NC1=O [BPC638, c(KKLKK(CO-isoC5H11)HKKLQ)] (cyclo(HKKLQKKLKK(Pentanoyl(4-Me)))) | 6.2 to 12.5 | 25 to 50 | 25 to 50 | 6.2 to 12.5 | 6 ± 2 | 8 ± 5
CCCCCCCC(=O)NCCCC[C@H]1NC(=O)[C@H](CCCCN)NC(=O)[C@H](CC(C)C)NC(=O)[C@H](CCCCN)NC(=O)[C@H](CCCCN)NC(=O)[C@H](CCC(N)=O)NC(=O)[C@H](CC(C)C)NC(=O)[C@H](CCCCN)NC(=O)[C@H](CCCCN)NC(=O)[C@H](Cc2ccccc2)NC1=O [BPC666, c(KKLKk(CO-C7H15)FKKLQ)] (cyclo(FKKLQKKLK[dK](Octanoyl))) | 12.5 to 25 | 12.5 to 25 | 25 to 50 | 6.2 to 12.5 | 61 ± 2 | 73 ± 3
CCCCCCCC(=O)NCCCC[C@@H]1NC(=O)[C@H](CCCCN)NC(=O)[C@H](CC(C)C)NC(=O)[C@H](CCCCN)NC(=O)[C@H](CCCCN)NC(=O)[C@H](CCC(N)=O)NC(=O)[C@H](CC(C)C)NC(=O)[C@H](CCCCN)NC(=O)[C@H](CCCCN)NC(=O)[C@@H](Cc2ccccc2)NC1=O [BPC668, c(KKLKK(CO-C7H15)fKKLQ)] (cyclo(KKLKK(Octanoyl)[dF]KKLQ)) | 12.5 to 25 | 6.2 to 12.5 | 25 to 50 | 6.2 to 12.5 | 79 ± 2 | 79 ± 1
